The results in this text go back to ChEMBL document CHEMBL1151725, “A cell wall-active lipopeptide from the fungus Pochonia bulbillosa” (2008).

This assay has as its system Neurospora crassa. Briefly: Antifungal activity against Neurospora crassa os-1 mutant assessed as zone of protoplast production at 600 ng/disk after 36 to 48 hrs by microscopic examination. Type of assay: functional.

Turning to `CCCCCCCCCC(O)CCCC(=O)N[C@H](C(=O)N[C@H](C)C(=O)N[C@@H](C)C(=O)N[C@@H](C)C(=O)N[C@H](Cc1ccc(O)cc1)C(=O)N[C@H](C(=O)O)C(C)C)[C@@H](C)O` (stereo partly specified), the Activity turned out to be 20 mm.
